For ten molecules, IC50, microsomal CLint and EC50 results are on record in ChEMBL document CHEMBL5223091, “Targeting the Mitotic Kinesin KIF18A in Chromosomally Unstable Cancers: Hit Optimization Toward an In Vivo Chemical Probe” (J Med Chem, 2022).

For orientation: IC50 means the point on the concentration scale where inhibition reaches its midpoint. As a reminder, the EC50 is the midpoint of the concentration-response curve.

Data set [1] addresses T1, Kinesin-like protein KIF18A (Homo sapiens, UniProt Q8NI77).
T1 sequence (Q8NI77 whole entry): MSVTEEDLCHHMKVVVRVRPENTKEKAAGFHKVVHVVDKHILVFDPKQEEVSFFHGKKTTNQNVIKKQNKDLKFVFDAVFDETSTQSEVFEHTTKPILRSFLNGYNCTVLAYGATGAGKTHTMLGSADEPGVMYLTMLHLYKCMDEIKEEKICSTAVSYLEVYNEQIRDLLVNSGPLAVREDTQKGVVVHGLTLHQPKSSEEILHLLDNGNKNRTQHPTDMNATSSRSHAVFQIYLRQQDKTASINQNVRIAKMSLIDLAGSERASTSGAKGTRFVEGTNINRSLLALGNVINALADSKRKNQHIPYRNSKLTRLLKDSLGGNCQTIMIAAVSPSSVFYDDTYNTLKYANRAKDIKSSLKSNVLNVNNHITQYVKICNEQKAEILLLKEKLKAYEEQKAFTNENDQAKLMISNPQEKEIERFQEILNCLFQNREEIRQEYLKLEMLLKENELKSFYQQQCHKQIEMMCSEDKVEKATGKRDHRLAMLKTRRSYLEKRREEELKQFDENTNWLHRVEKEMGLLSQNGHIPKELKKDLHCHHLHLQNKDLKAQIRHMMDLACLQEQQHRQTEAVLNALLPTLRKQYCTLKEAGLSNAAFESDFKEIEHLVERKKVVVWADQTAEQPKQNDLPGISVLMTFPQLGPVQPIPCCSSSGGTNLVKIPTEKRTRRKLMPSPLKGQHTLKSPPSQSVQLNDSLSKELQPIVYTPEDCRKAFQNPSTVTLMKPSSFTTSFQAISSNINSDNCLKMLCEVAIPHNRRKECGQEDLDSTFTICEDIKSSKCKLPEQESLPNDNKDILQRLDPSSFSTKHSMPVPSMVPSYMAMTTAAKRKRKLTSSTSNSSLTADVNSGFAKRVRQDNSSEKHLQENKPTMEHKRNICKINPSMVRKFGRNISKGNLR
Briefly: Inhibition of recombinant His-tagged human KIF18A (1 to 467 residues) expressed in Trichoplusia ni insect cells assessed as inhibition of microtubule-stimulated ATPase activity preincubated for 30 mins followed by ATP addition and further incubated for 15 mins by ADP-Glo reagent based assay. On the set-up: species or system Insect cell. Background: In ADP-Glo the light output rises with the ADP produced.

The nature of data set [2]: Metabolic stability in mouse liver microsomes assessed as intrinsic clearance at 0.5 uM incubated upto 40 mins by LCMS analysis. Conditions: read-out: CLH. It counts as ADME, Microsome. A general note: Liver microsomes are vesicles of endoplasmic reticulum, rich in cytochrome P450 enzymes.
A short description of data set [3]: Metabolic stability in human liver microsomes assessed as intrinsic clearance at 0.5 uM incubated upto 40 mins by LCMS analysis. It counts as ADME, Microsome. The settings on record: read-out: CLH.
The subject of data set [4] is OVCAR-3. Briefly: Induction of mitotic arrest in human OVCAR-3 cells assessed as p-histone H3 incubated for 24 hrs by mitotic - imaging assay. It counts as functional, cell-based. The settings on record: OVCAR-3, 24 h.
Data set [5] has as its system OVCAR-3. Briefly: Antiproliferative activity against human OVCAR-3 cells by nuclear count assay. It counts as functional, cell-based.
Data set [6] concerns the target T2, Kinesin-like protein KIF11 (Homo sapiens, UniProt P52732).
T2 sequence (P52732 whole entry): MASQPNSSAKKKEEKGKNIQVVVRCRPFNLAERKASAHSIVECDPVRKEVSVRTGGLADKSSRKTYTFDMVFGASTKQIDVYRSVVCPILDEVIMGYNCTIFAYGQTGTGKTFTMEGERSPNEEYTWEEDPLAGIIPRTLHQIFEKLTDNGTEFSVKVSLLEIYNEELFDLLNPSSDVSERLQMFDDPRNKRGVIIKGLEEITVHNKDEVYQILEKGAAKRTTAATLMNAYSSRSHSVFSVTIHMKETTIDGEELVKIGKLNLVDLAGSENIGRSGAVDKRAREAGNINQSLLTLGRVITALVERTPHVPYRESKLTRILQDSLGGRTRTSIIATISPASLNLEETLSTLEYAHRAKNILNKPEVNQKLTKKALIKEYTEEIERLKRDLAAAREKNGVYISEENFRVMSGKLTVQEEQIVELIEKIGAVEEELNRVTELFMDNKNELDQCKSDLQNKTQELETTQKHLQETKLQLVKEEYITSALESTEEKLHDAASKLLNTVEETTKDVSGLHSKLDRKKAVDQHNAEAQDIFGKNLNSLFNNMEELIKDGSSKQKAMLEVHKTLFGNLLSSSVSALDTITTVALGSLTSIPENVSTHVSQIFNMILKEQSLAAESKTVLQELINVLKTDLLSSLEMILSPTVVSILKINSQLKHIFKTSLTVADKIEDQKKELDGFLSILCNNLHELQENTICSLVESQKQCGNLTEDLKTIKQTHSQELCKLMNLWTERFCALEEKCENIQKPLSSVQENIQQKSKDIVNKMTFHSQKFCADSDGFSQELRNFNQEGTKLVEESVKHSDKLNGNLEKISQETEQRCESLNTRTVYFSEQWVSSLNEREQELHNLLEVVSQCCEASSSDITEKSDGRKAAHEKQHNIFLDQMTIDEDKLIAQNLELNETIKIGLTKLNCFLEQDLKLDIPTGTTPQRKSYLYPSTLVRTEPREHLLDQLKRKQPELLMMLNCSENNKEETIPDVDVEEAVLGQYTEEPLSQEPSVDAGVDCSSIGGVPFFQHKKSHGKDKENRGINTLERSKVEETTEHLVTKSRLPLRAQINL
Put plainly: Inhibition of recombinant GST-tagged human Eg5 assessed as inhibition of microtubule-stimulated ATPase activity preincubated for 30 mins followed by ATP addition and further incubated for 15 mins by ADP-Glo reagent based assay.

The target of data set [7] is Centromere-associated protein E (Homo sapiens, UniProt Q02224). Briefly: Inhibition of recombinant GST-tagged human CENP-E assessed as inhibition of microtubule-stimulated ATPase activity preincubated for 30 mins followed by ATP addition and further incubated for 15 mins by ADP-Glo reagent based assay.
The next data set has as its system MDA-MB-157. Briefly: Induction of mitotic arrest in TP53 mutant human MDA-MB-157 cells assessed as multipolar spindle arrays by measuring pericentriolar material incubated for 24 hrs by mitotic index assay. It counts as functional, cell-based. Conditions: MDA-MB-157, 24 h.

Sequence of Centromere-associated protein E (Q02224 whole entry): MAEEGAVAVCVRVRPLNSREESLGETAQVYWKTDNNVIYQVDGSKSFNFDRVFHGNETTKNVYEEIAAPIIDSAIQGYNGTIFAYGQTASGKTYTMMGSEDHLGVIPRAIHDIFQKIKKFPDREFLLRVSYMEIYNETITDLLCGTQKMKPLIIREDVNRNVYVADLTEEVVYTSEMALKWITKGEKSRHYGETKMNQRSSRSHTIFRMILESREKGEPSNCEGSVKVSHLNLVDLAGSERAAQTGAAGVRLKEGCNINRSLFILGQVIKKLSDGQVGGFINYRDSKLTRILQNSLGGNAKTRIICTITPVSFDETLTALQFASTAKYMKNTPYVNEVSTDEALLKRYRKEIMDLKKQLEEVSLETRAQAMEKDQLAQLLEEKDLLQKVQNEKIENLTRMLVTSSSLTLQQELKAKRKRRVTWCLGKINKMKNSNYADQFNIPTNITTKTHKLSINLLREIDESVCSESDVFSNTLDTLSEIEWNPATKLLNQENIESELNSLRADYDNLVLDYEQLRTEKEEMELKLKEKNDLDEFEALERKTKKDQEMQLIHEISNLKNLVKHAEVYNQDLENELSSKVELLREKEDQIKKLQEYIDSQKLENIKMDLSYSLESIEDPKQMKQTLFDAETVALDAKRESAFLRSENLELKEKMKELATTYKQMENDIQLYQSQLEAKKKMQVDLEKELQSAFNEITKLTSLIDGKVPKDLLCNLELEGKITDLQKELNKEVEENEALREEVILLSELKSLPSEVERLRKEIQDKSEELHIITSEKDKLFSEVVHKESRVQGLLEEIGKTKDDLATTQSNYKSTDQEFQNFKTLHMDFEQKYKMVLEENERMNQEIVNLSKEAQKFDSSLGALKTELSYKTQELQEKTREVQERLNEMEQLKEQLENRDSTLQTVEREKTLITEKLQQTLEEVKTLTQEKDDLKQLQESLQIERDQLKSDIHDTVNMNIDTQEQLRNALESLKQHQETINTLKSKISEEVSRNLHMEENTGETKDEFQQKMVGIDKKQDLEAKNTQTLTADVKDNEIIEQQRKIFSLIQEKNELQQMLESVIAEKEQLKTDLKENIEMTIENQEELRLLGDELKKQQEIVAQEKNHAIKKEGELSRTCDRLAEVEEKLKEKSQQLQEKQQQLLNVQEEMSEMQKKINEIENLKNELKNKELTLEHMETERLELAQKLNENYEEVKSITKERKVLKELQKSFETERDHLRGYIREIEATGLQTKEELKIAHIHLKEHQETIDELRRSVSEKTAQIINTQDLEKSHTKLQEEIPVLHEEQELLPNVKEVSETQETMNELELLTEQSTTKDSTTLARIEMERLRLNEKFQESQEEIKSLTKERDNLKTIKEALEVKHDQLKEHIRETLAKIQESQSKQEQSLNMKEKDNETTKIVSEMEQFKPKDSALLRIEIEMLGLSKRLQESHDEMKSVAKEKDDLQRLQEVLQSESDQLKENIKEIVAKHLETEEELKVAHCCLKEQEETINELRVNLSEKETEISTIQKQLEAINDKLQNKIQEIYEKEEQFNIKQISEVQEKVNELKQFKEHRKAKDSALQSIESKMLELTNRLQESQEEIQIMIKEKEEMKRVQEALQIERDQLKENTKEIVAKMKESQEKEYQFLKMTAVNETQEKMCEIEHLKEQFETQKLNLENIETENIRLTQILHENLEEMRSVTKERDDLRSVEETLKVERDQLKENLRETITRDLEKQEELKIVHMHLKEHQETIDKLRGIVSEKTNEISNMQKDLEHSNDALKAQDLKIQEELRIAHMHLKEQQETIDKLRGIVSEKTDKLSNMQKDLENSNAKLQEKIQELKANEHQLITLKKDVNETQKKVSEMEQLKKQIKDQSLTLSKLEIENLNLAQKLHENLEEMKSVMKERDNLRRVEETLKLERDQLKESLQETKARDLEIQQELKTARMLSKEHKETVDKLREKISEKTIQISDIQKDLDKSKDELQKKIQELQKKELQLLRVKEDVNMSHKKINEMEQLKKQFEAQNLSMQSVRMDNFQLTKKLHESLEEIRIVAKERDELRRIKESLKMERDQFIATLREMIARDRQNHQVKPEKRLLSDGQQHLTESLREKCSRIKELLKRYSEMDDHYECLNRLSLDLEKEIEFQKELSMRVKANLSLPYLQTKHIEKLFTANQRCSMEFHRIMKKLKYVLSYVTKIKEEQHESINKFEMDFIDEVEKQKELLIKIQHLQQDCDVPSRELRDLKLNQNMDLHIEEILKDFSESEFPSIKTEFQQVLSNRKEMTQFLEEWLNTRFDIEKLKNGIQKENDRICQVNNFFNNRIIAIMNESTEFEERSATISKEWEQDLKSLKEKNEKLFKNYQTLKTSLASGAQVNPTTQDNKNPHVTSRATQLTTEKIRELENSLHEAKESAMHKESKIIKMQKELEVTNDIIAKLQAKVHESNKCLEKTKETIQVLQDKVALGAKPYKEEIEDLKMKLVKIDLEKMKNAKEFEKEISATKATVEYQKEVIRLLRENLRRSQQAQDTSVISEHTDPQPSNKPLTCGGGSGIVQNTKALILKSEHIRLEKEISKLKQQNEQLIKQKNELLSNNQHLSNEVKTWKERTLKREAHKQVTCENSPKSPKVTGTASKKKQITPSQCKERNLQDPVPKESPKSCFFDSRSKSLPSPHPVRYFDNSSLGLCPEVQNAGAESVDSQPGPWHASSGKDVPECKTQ

For the molecule `CC(C)(C)NS(=O)(=O)c1cccc(NC(=O)c2ccc(NC(C)(C)CO)cc2N2CCC3(CC2)CC3)n1`, in data set [1], the 50% inhibitory concentration (IC50) was 140 nM. In addition, the values for the microsomal CLint at 0.5 µM in data set [2] and in data set [3] were more than 399 µL/min/mg and 189 µL/min/mg, respectively. The EC50 in the data set on OVCAR-3 [4] is 28 nM; in the data set on OVCAR-3 [5], 23 nM.

As to `O=C(Nc1cccc(S(=O)(=O)N2CCCCC2)c1)c1cn[nH]c1-c1ccc(Cl)cc1`, the IC50 is 520 nM in data set [1], more than 100 µM in data set [6], more than 100 µM in data set [7] and 8.8 µM with MDA-MB-157. For the same molecule, the microsomal CLint at 0.5 µM in data set [2] is more than 399 µL/min/mg; in data set [3] it was 255 µL/min/mg.

As for `O=C(Nc1cccc(C2(C(F)(F)F)N=N2)c1)c1ccc(NS(=O)(=O)CCO)nc1N1CCC2(CC1)CC2`, in data set [1], the IC50 is 32 nM.

Take `CC(C)(CO)Nc1ccc(C(=O)Nc2cccc(S(=O)(=O)NC3CCCC3)n2)c(N2CCC3(CC2)CC3)c1`: the IC50 in data set [1] worked out at 80 nM. Besides, the microsomal CLint at 0.5 µM in data set [2] and in data set [3] was more than 399 µL/min/mg throughout. Further, the EC50 in the data set with OVCAR-3 [4] was determined as 48 nM; in the data set on OVCAR-3 [5], 32 nM.

For the molecule `O=[N+]([O-])c1cc(Cl)ccc1S(=O)(=O)c1ccccc1`, in data set [1], the IC50 is 1700 nM.

Take `O=C(Nc1cccc(S(=O)(=O)N2CCCC2)c1)c1cccnc1N1CCC2(CC1)CC2`: the IC50 in data set [1] was determined as 1830 nM. Besides, the microsomal CLint at 0.5 µM in data set [2] and in data set [3] was more than 399 µL/min/mg in each case. In addition, the values for the EC50 with OVCAR-3 [4] and with OVCAR-3 [5] were 5460 nM and 4420 nM, respectively.

As for `CC(C)(O)CNc1ccc(C(=O)Nc2cccc(S(=O)(=O)C3CCCC3)n2)c(N2CCC3(CC2)CC3)c1`, the IC50 in data set [1] was 165 nM. Also, the microsomal CLint at 0.5 µM in data set [2] and in data set [3] was more than 399 µL/min/mg throughout. Besides, the EC50 in the data set with OVCAR-3 [4] stood at 228 nM; with OVCAR-3 [5], 229 nM.

`CC(C)(CO)S(=O)(=O)c1cccc(NC(=O)c2cccnc2N2CCC3(CC2)CC3)c1`: the IC50 in data set [1] is 31600 nM. Further, the microsomal CLint at 0.5 µM in data set [2] was more than 399 µL/min/mg; in data set [3] it was 154 µL/min/mg. Besides, the 50% effective concentration (EC50) in the data set on OVCAR-3 [4] was 45800 nM; in the data set on OVCAR-3 [5] it was 31200 nM.

On to `CC(C)(C)NS(=O)(=O)c1cccc(NC(=O)c2cccnc2N2CCC3(CC2)CC3)c1`, for which the concentration for half-maximal inhibition (IC50) in data set [1] was found to be 320 nM. Further, the microsomal CLint at 0.5 µM in data set [2] and in data set [3] was more than 399 µL/min/mg in each case. For the same molecule, the EC50 was found to be 1030 nM in the data set on OVCAR-3 [4] and 840 nM in the data set with OVCAR-3 [5].

With `CC(C)(C)NS(=O)(=O)c1cccc(NC(=O)c2ccc(NC(C)(C)CO)nc2N2CCC3(CC2)CC3)n1`, the IC50 in data set [1] was 81 nM. In addition, the microsomal CLint at 0.5 µM in data set [2] and in data set [3] was more than 399 µL/min/mg each time. Further, the concentration giving a half-maximal response (EC50) with OVCAR-3 [4] came to 43 nM; in the data set with OVCAR-3 [5], 42 nM.
